Results as given in paper PMC2734971 (Pharmaceutical research, 2009).
Where no end group is shown, it is not given here.

What was measured:
kidney = assay: T1-weighted coronal MR imaging, kidney signal; assay type: in vivo, SCID mice; details: up to 24 h; 0.03 mmol-Gd/kg i.v.; 9.4 tesla
[1] = tested on: MDA-MB-231 tumor xenografts; assay: In vivo MR T1-mapping of MDA-MB-231 tumor-bearing SCID mice; set-up: species or system SCID mice (human breast cancer xenograft)
[2] = tested on: solid tumors / αVβ3 integrins; details: prostate tumors; cited from earlier work

| Substance | signal enhancement in kidney (kidney) | T1 at tumor site, targetable vs non-targetable, other time points ([1]; 10 min, 30 min, 1, 6, 24 h, 0.03 mmol-Gd/kg i.v.) | mean T1 value at tumor site, 2 h post-injection ([1]; 2 h after i.v. injection, 0.03 mmol-Gd/kg, 9.4 tesla, 4 mice/group, mean±SD) [ms] | enhancement of tumor accumulation vs copolymers without targeting peptide [2] |
| --- | --- | --- | --- | --- |
| P-RGDfK-Gd: HPMA copolymer with Gd-DOTA and RGDfK side chains; Mw 43,000; 0.428 mmol/g RGDfK, 0.14 mmol/g Gd | signal enhancement in kidney up to 24 h | no significant difference | 1950 ± 189.8 | – |
| KACDCRGDCFCG (also: bicyclic or more (positions not given here)) [RGD4C] | – | – | – | four to fivefold enhancement |
